Response and IC50 data for seven compounds are collected here from ChEMBL document CHEMBL1122308, “Bicyclic lactones derived from kainic acid as novel selective antagonists of neuroexcitatory amino acids” (J Med Chem, 1983).

Bounds are passed on as bounds.

A word on the IC50: it is the concentration that inhibits the measured activity by half. Read a high IC50 as a need for much substance.

Assay type in all cases: functional
Assay [1] is filed under the species Rattus norvegicus. The assay can be described thus: Percentage response to 0.5 mM of L-Glutamic acid at 2 mM in rat striatum slices.
The species named for assay [2] is Rattus norvegicus. The assay can be described thus: Percentage response to 0.1 mM of kainic acid (KA) at 2 mM in rat striatum slices.
For assay [3], the species on record is Rattus norvegicus. The assay can be described thus: Concentration at which the compound inhibits half of the response of kainic acid (KA).
Assay [4] is filed under the species Rattus norvegicus. The assay can be described thus: Concentration at which the compound inhibits half of the response of N-methyl-D-aspartic acid (NMDA).
The species entered for assay [5] is Rattus norvegicus. The assay can be described thus: Percentage response to 30 uM of N-methyl-D-aspartic acid (NMDA) at 2 mM in rat striatum slices.
Assay [6] is filed under the species Rattus norvegicus. The assay can be described thus: Percentage response to 0.1 mM of quisqualic acid at 2 mM in rat striatum slices.
The species named for assay [7] is Rattus norvegicus. The assay can be described thus: Percentage response to 0.5 mM of L-Glutamic acid at 1 mM in rat striatum slices.
Assay [8] is filed under the species Rattus norvegicus. The assay can be described thus: Percentage response to 0.1 mM of quisqualic acid at 1 mM in rat striatum slices.
For assay [9], the species on record is Rattus norvegicus. The assay can be described thus: Percentage response to 30 uM of N-methyl-D-aspartic acid (NMDA) at 1 mM in rat striatum slices.
For assay [10], the species on record is Rattus norvegicus. The assay can be described thus: Percentage response to 0.1 mM of kainic acid (KA) at 1 mM in rat striatum slices.
The species named for assay [11] is Rattus norvegicus. The assay can be described thus: Percentage response to 0.1 mM of quisqualic acid at 3 mM in rat striatum slices.
The species named for assay [12] is Rattus norvegicus. The assay can be described thus: Percentage response to 0.1 mM of kainic acid (KA) at 3 mM in rat striatum slices.
For assay [13], the species on record is Rattus norvegicus. The assay can be described thus: Percentage response to 30 uM of N-methyl-D-aspartic acid (NMDA) at 3 mM in rat striatum slices.
The species named for assay [14] is Rattus norvegicus. The assay can be described thus: Percentage response to 0.5 mM of L-Glutamic acid at 3 mM in rat striatum slices.
For assay [15], the species on record is Rattus norvegicus. The assay can be described thus: Percentage response to 0.5 mM of L-Glutamic acid at 1.5 mM in rat striatum slices.
For assay [16], the species on record is Rattus norvegicus. The assay can be described thus: Percentage response to 30 uM of N-methyl-D-aspartic acid (NMDA) at 1.5 mM in rat striatum slices.

On to `CC1(C)OC(=O)C[C@@H]2[C@@H](C(=O)O)NC[C@@H]21`, for which the Response is 96% in [1], 66% in [2], less than 16% in assay [5] and 94% in assay [6]. Besides, the IC50 turned out to be 3000 µM in assay [3] and 300 µM in assay [4].

On to `CC1(CI)OC(=O)C[C@@H]2[C@@H](C(=O)O)NC[C@@H]21` (stereo partly drawn), for which the Response is 74% in assay [1], less than 15% in assay [2], less than 42% in [5] and 96% in assay [6].

For the compound `NC(CCCP(=O)(O)O)C(=O)O` (stereo not drawn), the Response is recorded as less than 64% in assay [7], less than 91% in assay [8], less than 0% in [9] and 118% in assay [10].

As to `CC1(CSc2ccccc2)OC(=O)C[C@@H]2[C@H](C(=O)O)NC[C@@H]21` (stereo partly drawn), the Response in [7] is listed as 87%; in assay [8], less than 53%; in [9], less than 36%; in [10], less than 0%. The IC50 in assay [3] was found to be 200 µM.

Take `CC1(CO)OC(=O)C[C@@H]2[C@@H](C(=O)O)NC[C@@H]21` (stereo partly drawn): the Response was 94% in assay [11], less than 50% in [12], less than 36% in [13] and 106% in assay [14]. In addition, the IC50 in assay [3] came out at 3000 µM; in assay [4], 2000 µM.

Regarding `CC1(CSc2ccccc2)OC(=O)C[C@@H]2[C@@H](C(=O)O)NC[C@@H]21` (stereo partly drawn), the Response in assay [8] is 76%; in assay [15] it was 84%; in assay [16], less than 10%; in assay [10] it was less than 16%.

`CC1(CI)OC(=O)C[C@@H]2[C@H](C(=O)O)NC[C@@H]21` (stereo partly drawn): the Response in assay [1] was 79%; in assay [2], less than 8%; in [5], less than 49%; in assay [6], 111%.
